“And” between values parts separate entries of the source, which are not always exact repeats. Equal entries are not always repeated.
Legend:
Genome polyprotein [1] = target: T1, Genome polyprotein (dengue virus type 2, UniProt P29990); assay type: functional, Thailand/16681/1984
Genome polyprotein [2] = target: T1, Genome polyprotein; assay type: functional, Thailand/16681/1984; remark: listed apart in the source

T1 sequence (P29990 1346-1475 limits assumed): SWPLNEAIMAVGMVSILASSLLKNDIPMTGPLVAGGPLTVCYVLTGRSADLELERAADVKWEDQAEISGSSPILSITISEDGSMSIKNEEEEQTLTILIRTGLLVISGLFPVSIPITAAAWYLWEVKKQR
T1 sequence (P29990 1476-2093 limits assumed): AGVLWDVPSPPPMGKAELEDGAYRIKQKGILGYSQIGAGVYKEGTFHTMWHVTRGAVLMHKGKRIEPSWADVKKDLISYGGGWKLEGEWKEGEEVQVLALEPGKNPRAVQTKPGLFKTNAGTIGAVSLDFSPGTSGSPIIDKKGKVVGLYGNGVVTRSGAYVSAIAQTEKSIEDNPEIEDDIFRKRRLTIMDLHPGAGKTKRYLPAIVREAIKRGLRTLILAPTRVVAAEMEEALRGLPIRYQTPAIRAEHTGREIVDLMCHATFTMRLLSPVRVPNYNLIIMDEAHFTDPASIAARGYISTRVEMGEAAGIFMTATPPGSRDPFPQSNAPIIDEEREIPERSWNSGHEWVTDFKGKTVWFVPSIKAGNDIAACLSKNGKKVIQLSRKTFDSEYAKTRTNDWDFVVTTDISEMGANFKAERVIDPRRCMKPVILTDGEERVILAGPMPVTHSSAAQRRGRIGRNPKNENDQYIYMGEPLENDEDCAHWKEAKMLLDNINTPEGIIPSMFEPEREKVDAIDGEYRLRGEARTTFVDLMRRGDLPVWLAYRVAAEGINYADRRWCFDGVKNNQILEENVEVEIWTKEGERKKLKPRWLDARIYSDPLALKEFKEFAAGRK

Compound	IC50 (Genome polyprotein [1])	IC50 (Genome polyprotein [2])
NCCCc1cccc(NC(=O)c2cc(Cl)cc(NC(=O)OCc3ccccc3)c2)n1	62.1 µM	> 100 µM
NCc1cccc(NC(=O)[C@@H](NC(=O)OCc2ccccc2)C2CCN(S(=O)(=O)C3CCCC3)CC2)c1	> 99.5 µM	> 100 µM
CC(=O)N1CCC([C@H](NC(=O)OCc2ccccc2)C(=O)Nc2cccc(CN)c2)CC1	> 99.5 µM	> 100 µM
NCc1cccc(NC(=O)c2cc(NC(=O)OCc3ccccc3)ccc2C(F)(F)F)c1	> 99.5 µM	> 100 µM
NCc1cccc(NC(=O)c2cc(Cl)cc(-n3cccc3)c2)c1	> 99.5 µM	> 100 µM
N#Cc1csc(CN2CCC([C@H](NC(=O)OCc3ccccc3)C(=O)Nc3cccc(CN)c3)CC2)c1	> 99.5 µM	> 100 µM
NCc1cccc(NC(=O)[C@@H](NC(=O)OCc2ccccc2)C2CCN(C(=O)C3CC3)CC2)c1	> 99.5 µM	> 100 µM
NCc1cccc(NC(=O)[C@H](NC(=O)OCc2ccccc2)C2CCN(C(=O)[C@H]3C[C@H](O)C3)CC2)c1	> 99.5 µM	> 100 µM
N#CC1(S(=O)(=O)N2CCC([C@H](NC(=O)OCc3ccccc3)C(=O)Nc3cccc(CN)c3)CC2)CCC1	81.8 µM	> 100 µM
NCc1cccc(NC(=O)c2cc(Cl)cc(OC3CC3)c2)c1	> 99.5 µM	> 100 µM
NCc1cccc(NC(=O)c2cc(Cl)cc(N3CCCC3)c2)c1	> 99.5 µM	> 100 µM
C[C@@H]1CNC[C@H]1c1ccc(NC(=O)c2ccc3c(c2)SCCN3)cc1	> 99.5 µM	> 100 µM
CCCCSc1ccc(Cl)cc1C(=O)Nc1cccc(CN)c1	> 99.5 µM	> 100 µM
NCc1cccc(NC(=O)c2cc(NC(=O)OCc3ccccc3)cc3c2OCCO3)c1	> 99.5 µM	> 100 µM
O=C(Nc1cc(Cl)cc(C(=O)NCC2(CO)CCNCC2)c1)OCc1ccccc1	> 99.5 µM	> 100 µM
NCc1cccc(NC(=O)[C@H](NC(=O)OCc2ccccc2)C2CCN(C(=O)C3CCOCC3)CC2)c1	> 99.5 µM	> 100 µM
CNCCS(=O)(=O)N1CCC([C@H](NC(=O)OCc2ccccc2)C(=O)Nc2cccc(CN)c2)CC1	> 99.5 µM	> 100 µM
c1ccc(-c2[nH]c3ccccc3c2CN2CCC(c3cscn3)CC2)cc1	> 99.5 µM	> 100 µM
O=C(Nc1cc(Cl)cc(C(=O)Nc2ccc3c(c2)[C@H]2CC[C@H]3N2)c1)OCc1ccccc1	76.4 µM	> 100 µM
CSc1cc(F)c(C(=O)Nc2cccc(CN)c2)cc1NC(=O)OCc1ccccc1	84.2 µM	> 100 µM
NCc1cccc(NC(=O)[C@H](NC(=O)OCc2ccccc2)C2CCN(C3CCCC3)CC2)c1	> 99.5 µM	> 100 µM
CCN(C)S(=O)(=O)N1CCC([C@H](NC(=O)OCc2ccccc2)C(=O)Nc2cccc(CN)c2)CC1	> 99.5 µM	> 100 µM
CC(C)CC(=O)N1CCC([C@H](NC(=O)OCc2ccccc2)C(=O)Nc2cccc(CN)c2)CC1	> 99.5 µM	> 100 µM
NCc1cccc(NC(=O)c2cc(Cl)ccc2-n2cncn2)c1	> 99.5 µM	> 100 µM
COCCOc1ccc(Cl)cc1C(=O)Nc1cccc(CN)c1	> 99.5 µM	> 100 µM
CC(C)N1CCC([C@H](NC(=O)OCc2ccccc2)C(=O)Nc2cccc(CN)c2)CC1	> 99.5 µM	> 100 µM
Cn1nnc(S(=O)(=O)N2CCC([C@H](NC(=O)OCc3ccccc3)C(=O)Nc3cccc(CN)c3)CC2)n1	> 99.5 µM	> 100 µM

Compound	IC50 (Genome polyprotein [1])	IC50 (Genome polyprotein [2])
NCc1cccc(NC(=O)[C@H](NC(=O)OCc2ccccc2)C2CCN(S(=O)(=O)c3ccccc3)CC2)c1	> 99.5 µM	> 100 µM
NCCc1nsc(NC(=O)c2cc(Cl)cc(NC(=O)OCc3ccccc3)c2)n1	> 99.5 µM	> 100 µM
CN(C)Cc1cccc(C(=O)Nc2cccc(CN)c2)c1	> 99.5 µM	> 100 µM
Cc1nnc(CN2CCC([C@H](NC(=O)OCc3ccccc3)C(=O)Nc3cccc(CN)c3)CC2)s1	> 99.5 µM	> 100 µM
COCc1cc(Cl)cc(C(=O)Nc2cccc(CN)c2)c1	> 99.5 µM	> 100 µM
Cn1nc(CCN)nc1NC(=O)c1cc(Cl)cc(NC(=O)OCc2ccccc2)c1	> 99.5 µM	> 100 µM
Cc1cc(CN)cc(NC(=O)c2cc(Cl)cc(NC(=O)OCc3ccccc3)c2)c1	42.2 µM	> 100 µM
C[C@H](N)c1cccc(NC(=O)c2cc(Cl)cc(NC(=O)OCc3ccccc3)c2)c1	68.6 µM	> 100 µM
NC12CCC(CNC(=O)c3cc(Cl)cc(NC(=O)OCc4ccccc4)c3)(CC1)OC2	> 99.5 µM	> 100 µM
Clc1ccc(-c2cc(CN3CCC(c4cscn4)CC3)[nH]n2)cc1	> 99.5 µM	> 100 µM
NCc1cccc(NC(=O)[C@@H](NC(=O)OCc2ccccc2)C2CCN(S(=O)(=O)Cc3cscn3)CC2)c1	> 99.5 µM	> 100 µM
CCS(=O)(=O)c1ccc(Cl)cc1C(=O)Nc1cccc(CN)c1	> 99.5 µM	> 100 µM
Cn1nc([C@@H]2CCCN2)nc1NC(=O)c1cc(Cl)cc(NC(=O)OCc2ccccc2)c1	> 99.5 µM	> 100 µM
CC(C)(C#N)CS(=O)(=O)N1CCC([C@H](NC(=O)OCc2ccccc2)C(=O)Nc2cccc(CN)c2)CC1	> 99.5 µM	> 100 µM
NCCCc1ccnc(NC(=O)c2cc(Cl)cc(NC(=O)OCc3ccccc3)c2)c1	48.2 µM	> 100 µM
NCc1cccc(NC(=O)[C@H](NC(=O)OCc2ccccc2)c2ccc(OCc3ccncn3)cc2)c1	99.2 µM	> 100 µM
Cn1ccnc1COc1cccc([C@H](NC(=O)OCc2ccccc2)C(=O)Nc2cccc(CN)c2)c1	> 99.5 µM	> 100 µM
O=c1ccc(N2CCN(Cc3c[nH]c4ccccc34)CC2)n[nH]1	> 99.5 µM	> 100 µM
NCc1cccc(NC(=O)c2cc(Cl)cc(C3CC3)c2)c1	> 99.5 µM	> 100 µM
Cc1nnc(S(=O)(=O)N2CCC([C@H](NC(=O)OCc3ccccc3)C(=O)Nc3cccc(CN)c3)CC2)s1	> 99.5 µM	> 100 µM
NCc1cccc(NC(=O)c2cc(Cl)cc(N3CCCC3=O)c2)c1	> 99.5 µM	> 100 µM
Cc1c(CN)cccc1NC(=O)c1cc(Cl)cc(NC(=O)OCc2ccccc2)c1	> 99.5 µM	> 100 µM
CN1CCC(COc2cccc([C@H](NC(=O)OCc3ccccc3)C(=O)Nc3cccc(CN)c3)c2)CC1	> 99.5 µM	> 100 µM
NCc1cccc(NC(=O)c2cc(Cl)cc3c2NCCC3)c1	> 99.5 µM	> 100 µM
NCc1cccc(NC(=O)c2cc(Cl)cc3c2OCCNC3)c1	> 99.5 µM	> 100 µM
Oc1cc(N2CCN(Cc3c[nH]c4ccccc34)CC2)ccn1	> 99.5 µM	> 100 µM
O=C(Nc1cc(Cl)cc(C(=O)Nc2cccc3c2CNC3)c1)OCc1ccccc1	> 99.5 µM	> 100 µM

Compound	IC50 (Genome polyprotein [1])	IC50 (Genome polyprotein [2])
CN(C)Cc1csc(NC(=O)c2cc(Cl)cc(NC(=O)OCc3ccccc3)c2)n1	> 99.5 µM	> 100 µM
NCc1cccc(NC(=O)[C@@H](NC(=O)OCc2ccccc2)C2CCN(S(=O)(=O)Cc3ncon3)CC2)c1	> 99.5 µM	> 100 µM
NCc1cccc(NC(=O)c2nc(=O)cc(NC(=O)OCc3ccccc3)[nH]2)c1	> 99.5 µM	> 100 µM
NCc1cccc(NC(=O)[C@@H](NC(=O)OCc2ccccc2)C2CCN(C3CCOCC3)CC2)c1	> 99.5 µM	> 100 µM
NCc1cccc(NC(=O)[C@H](NC(=O)OCc2ccccc2)c2ccc(OCCc3cscn3)cc2)c1	> 99.5 µM	> 100 µM
Clc1ccc2c(CN3CCC(c4c[nH]c5ncccc45)CC3)c[nH]c2c1	> 99.5 µM	> 100 µM
COCC(=O)N1CCC([C@@H](NC(=O)OCc2ccccc2)C(=O)Nc2cccc(CN)c2)CC1	> 99.5 µM	> 100 µM
NCc1ccc(O)c(NC(=O)c2cc(Cl)cc(NC(=O)OCc3ccccc3)c2)c1	74.5 µM	> 100 µM
CN(C)Cc1cc(NC(=O)[C@H](NC(=O)OCc2ccccc2)c2ccc(OCc3ccccc3)cc2)sn1	> 99.5 µM	> 100 µM
NCc1ccccc1Oc1ccc(S(=O)(=O)Nc2ccc(Cl)cc2C(=O)NCC(F)(F)F)cc1	> 99.5 µM	> 100 µM
CC(C)S(=O)(=O)N1CCC([C@@H](NC(=O)OCc2ccccc2)C(=O)Nc2cccc(CN)c2)CC1	> 99.5 µM	> 100 µM
Cn1ccnc1C(=O)N1CCC([C@H](NC(=O)OCc2ccccc2)C(=O)Nc2cccc(CN)c2)CC1	> 99.5 µM	> 100 µM
CS(=O)(=O)N1CCC([C@@H](NC(=O)OCc2ccccc2)C(=O)Nc2cccc(CN)c2)CC1	> 99.5 µM	> 100 µM
CN(C)CCOc1ccc(Cl)cc1C(=O)Nc1cccc(CN)c1	> 99.5 µM	> 100 µM
Cc1ccc(NC(=O)c2cc(Cl)cc(NC(=O)OCc3ccccc3)c2)cc1CN	> 99.5 µM and 95.8 µM	> 100 µM
CCCCS(=O)(=O)N1CCC([C@H](NC(=O)OCc2ccccc2)C(=O)Nc2cccc(CN)c2)CC1	> 99.5 µM	99 µM
CSc1cc(Cl)cc(C(=O)Nc2cccc(CN)c2)c1	> 99.5 µM	> 100 µM
CN1C(=O)C[C@H](C(=O)Nc2cccc(CN)c2)[C@H]1c1ccc(Cl)c(Cl)c1	> 99.5 µM	> 100 µM
NCc1cc(F)cc(NC(=O)c2cc(Cl)cc(NC(=O)OCc3ccccc3)c2)c1	> 99.5 µM	> 100 µM
NCc1cccc(NC(=O)c2cc(Cl)ccc2OCC(F)(F)F)c1	> 99.5 µM	> 100 µM
NCc1cccc(NC(=O)[C@H](NC(=O)OCc2ccccc2)C2CCN(CCc3ccccc3)CC2)c1	> 99.5 µM	> 100 µM
Cn1ncc(CN2CCC([C@H](NC(=O)OCc3ccccc3)C(=O)Nc3cccc(CN)c3)CC2)n1	> 99.5 µM	> 100 µM
NCc1cccc(NC(=O)[C@H](NC(=O)OCc2ccccc2)c2cccc(OCCn3cccn3)c2)c1	> 99.5 µM	> 100 µM
NCc1cccc(NC(=O)c2cc(Cl)cc3c2CCC3)c1	> 99.5 µM	> 100 µM
Cc1csc(N2CCN(Cc3c[nH]c4ccccc34)CC2)n1	> 99.5 µM	> 100 µM

— ChEMBL document CHEMBL5604063, “ASAP - DENV-2 NS2B-NS3 protease fluorescence dose response” (2024)
